Source: a compilation of properties of binary mixtures (doi:10.1016/j.molliq.2021.115610)

Assay: xn = mol fraction of the nth substance listed
Conditions: 298 K, 101 kPa

Compound: O + CC[NH3+].O=[N+]([O-])[O-]
- viscosity (x1 = 1): 0.89 mPa·s

Compound: CCCC[NH3+].O=[N+]([O-])[O-] + O
- viscosity (x2 = 0.112): 69.8 mPa·s
- viscosity (x2 = 0.2): 49.5 mPa·s
- viscosity (x2 = 0.397): 23.17 mPa·s
- viscosity (x2 = 0.494): 15.53 mPa·s
- viscosity (x2 = 0.596): 10.22 mPa·s
- viscosity (x2 = 0.698): 6.54 mPa·s
- viscosity (x2 = 0.95): 1.53 mPa·s

Compound: CC[NH3+].O=[N+]([O-])[O-] + O
- viscosity (x2 = 0): 37.5 mPa·s
- viscosity (x2 = 0.1): 27.33 mPa·s
- viscosity (x2 = 0.198): 19.84 mPa·s
- viscosity (x2 = 0.294): 14.51 mPa·s
- viscosity (x2 = 0.394): 10.37 mPa·s
- viscosity (x2 = 0.5): 7.16 mPa·s
- viscosity (x2 = 0.6): 4.98 mPa·s
- viscosity (x2 = 0.799): 2.27 mPa·s
- viscosity (x2 = 0.9): 1.47 mPa·s
